Source: the supplement of paper PMC10307832

Experiments:
Experiment in all cases: relative viability (nuclei count vs DMSO), 5 days (fraction); higher = more cells survive
[1] = compound: CCN(CCO)CCCC(C)Nc1ccnc2cc(Cl)ccc12 [Hydroxychloroquine] + C[C@]1(O)C[C@@H](c2nc(-c3ccc4ccc(-c5ccccc5)nc4c3)c3c(N)nccn32)C1 [Linsitinib] (partner 1 µM)
Summary of the method: (§1)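 Five library-drug doses in √10 steps were combined with a fixed anchor-drug dose, or a single drug was given alone, by pin tool to lung cancer cell lines in 1536-well plates the day after seeding. Nuclei were stained and counted after 5 days. Relative viability is the nuclei count in treated wells over that in vehicle wells, taken as the median of duplicate plates.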

[2] = compound: CCN(CCO)CCCC(C)Nc1ccnc2cc(Cl)ccc12 [Hydroxychloroquine] + CS(=O)(=O)N1CCN(Cc2cc3nc(-c4cccc5[nH]ncc45)nc(N4CCOCC4)c3s2)CC1 [Pictilisib] (partner 1 µM)
Summary of the method: as §1

[3] = compound: CCN(CCO)CCCC(C)Nc1ccnc2cc(Cl)ccc12 [Hydroxychloroquine] + Nc1ncn([C@H]2C[C@H](O)[C@@H](CO)O2)c(=O)n1 [Decitabine] (partner 2 µM)
Summary of the method: as §1

[4] = compound: CCN(CCO)CCCC(C)Nc1ccnc2cc(Cl)ccc12 [Hydroxychloroquine] + Cc1nc(NC(=O)N2CCC[C@H]2C(N)=O)sc1-c1ccnc(C(C)(C)C(F)(F)F)c1 [Alpelisib] (partner 2 µM)
Summary of the method: as §1

Cell Line	relative viability ([1]; first compound 0.5 µM)	relative viability ([1]; first compound 1.581 µM)	relative viability ([1]; first compound 5 µM)	relative viability ([1]; first compound 15.81 µM)	relative viability ([1]; first compound 50 µM)	relative viability ([2]; first compound 0.5 µM)	relative viability ([2]; first compound 1.581 µM)	relative viability ([2]; first compound 5 µM)	relative viability ([2]; first compound 15.81 µM)	relative viability ([2]; first compound 50 µM)	relative viability ([3]; first compound 0.5 µM)	relative viability ([3]; first compound 1.581 µM)	relative viability ([3]; first compound 5 µM)	relative viability ([3]; first compound 15.81 µM)	relative viability ([3]; first compound 50 µM)	relative viability ([4]; first compound 0.5 µM)	relative viability ([4]; first compound 1.581 µM)	relative viability ([4]; first compound 5 µM)	relative viability ([4]; first compound 15.81 µM)	relative viability ([4]; first compound 50 µM)
NCI-H1993	0.707	0.719	0.683	0.718	0.735	0.824	0.961	0.625	0.81	0.789	0.664	0.635	0.705	0.688	0.606	0.632	0.712	0.789	0.71	0.692
NCI-H1437	0.904	1.07	1.18	1.16	1.05	0.341	0.49	0.412	0.421	0.439	0.56	0.617	0.587	0.562	0.636	0.909	0.926	1.05	1	1.05
NCI-H441	0.561	0.497	0.627	0.664	0.699	0.488	0.532	0.535	0.38	0.428	0.23	0.326	0.241	0.245	0.228	–	0.627	0.816	0.746	0.625
201T	1.07	0.987	1.07	1	1.13	0.687	0.555	0.641	0.631	0.698	0.858	0.834	0.852	0.864	0.844	1.03	0.916	1.02	1.03	1.01
NCI-H358	0.795	0.704	0.712	0.69	0.743	0.32	0.274	0.281	0.327	0.328	0.208	0.203	0.217	0.21	0.201	0.832	0.698	0.775	0.91	0.8
LOU-NH91	0.907	0.811	0.981	0.937	0.946	0.531	0.488	0.567	0.509	0.488	0.761	0.732	0.833	0.83	0.824	0.697	0.617	0.741	0.745	0.758
HOP-62	0.95	0.873	1.15	0.868	0.987	0.682	0.643	0.722	0.854	0.515	0.209	0.239	0.206	0.207	0.206	0.997	1.18	1.15	1	1.04
NCI-H1915	1.11	1.13	1.11	1.09	1.11	0.973	0.869	0.947	0.895	0.978	0.252	0.247	0.273	0.252	0.263	1.03	1.08	1.06	1.13	1.07
NCI-H3122	1.05	1	0.953	1.05	1.07	0.658	0.574	0.619	0.58	0.576	0.429	0.413	0.468	0.426	0.403	0.798	0.736	0.822	0.779	0.8
NCI-H1651	0.909	1.1	0.975	1.14	0.963	0.6	0.663	0.561	0.574	0.592	0.626	0.649	0.652	0.633	0.509	0.963	0.926	1.05	1.04	0.989
PC-14	0.889	1.07	0.995	1.03	0.97	0.7	0.687	0.683	0.595	0.78	0.248	0.149	0.214	0.231	0.201	0.782	0.858	0.951	0.892	1.01
NCI-H647	1.27	1.01	1.29	1.25	1.22	0.514	0.323	0.335	0.357	0.476	0.369	0.438	0.446	0.388	0.444	1.12	1.06	1.1	1.02	1.13
SW 1573	0.698	0.625	0.67	0.74	0.674	0.484	0.392	0.535	0.528	0.603	0.444	0.296	0.409	0.554	0.428	0.703	0.767	0.893	0.796	0.826
NCI-H460	0.849	0.862	0.633	0.939	0.848	0.37	0.266	0.366	0.406	0.352	0.431	0.528	0.441	0.563	0.559	0.609	0.428	0.439	0.421	0.52
NCI-H661	0.537	0.361	0.564	0.542	0.598	0.472	0.413	0.406	0.384	0.358	0.584	0.587	0.564	0.528	0.567	0.665	0.567	0.795	0.547	0.481
SK-MES-1	1.1	1.09	1.12	1.16	1.03	0.4	0.373	0.321	0.342	0.359	0.389	0.304	0.419	0.361	0.366	0.697	0.765	1.01	0.952	0.929
NCI-H1792	0.534	0.588	0.583	0.536	0.56	0.286	0.256	0.254	0.26	0.249	0.56	0.521	0.563	0.461	0.583	0.677	0.698	0.65	0.392	0.664

Cell Line	relative viability ([1]; first compound 0.5 µM)	relative viability ([1]; first compound 1.581 µM)	relative viability ([1]; first compound 5 µM)	relative viability ([1]; first compound 15.81 µM)	relative viability ([1]; first compound 50 µM)	relative viability ([2]; first compound 0.5 µM)	relative viability ([2]; first compound 1.581 µM)	relative viability ([2]; first compound 5 µM)	relative viability ([2]; first compound 15.81 µM)	relative viability ([2]; first compound 50 µM)	relative viability ([3]; first compound 0.5 µM)	relative viability ([3]; first compound 1.581 µM)	relative viability ([3]; first compound 5 µM)	relative viability ([3]; first compound 15.81 µM)	relative viability ([3]; first compound 50 µM)	relative viability ([4]; first compound 0.5 µM)	relative viability ([4]; first compound 1.581 µM)	relative viability ([4]; first compound 5 µM)	relative viability ([4]; first compound 15.81 µM)	relative viability ([4]; first compound 50 µM)
NCI-H1355	0.872	0.879	0.896	0.809	0.892	0.475	0.362	0.461	0.485	0.471	0.319	0.344	0.369	0.371	0.338	0.81	0.744	0.837	0.833	0.86
UMC-11	0.928	1.02	0.986	1.1	1.22	0.843	0.542	0.752	0.844	1.03	0.541	0.485	0.633	0.663	0.619	0.841	0.956	0.962	1.06	1.2
A549	0.617	0.543	0.576	0.646	0.629	0.622	0.525	0.434	0.529	0.565	0.264	0.208	0.267	0.196	0.391	0.749	0.577	0.761	0.708	0.623
NCI-H2347	1.05	0.84	0.932	0.994	0.895	0.511	0.534	0.573	0.6	0.637	0.658	0.536	0.618	0.573	0.636	1.06	0.904	1.02	1.11	0.956
LCLC-97TM1	0.2	0.189	0.215	0.172	0.173	0.265	0.183	0.277	0.182	0.131	0.217	0.247	0.276	0.274	0.189	0.286	0.223	0.262	0.244	0.286
EMC-BAC-2	0.817	0.772	0.87	0.82	0.852	0.593	0.417	0.547	0.55	0.612	1.01	0.863	0.965	0.952	0.952	0.736	0.708	0.767	0.727	0.75
NCI-H1975	0.938	0.949	0.92	1.04	1.06	0.292	0.26	0.305	0.263	0.328	0.384	0.372	0.378	0.408	0.415	0.642	0.668	0.631	0.697	0.75
BEN	0.87	0.929	0.872	0.973	1.15	0.615	0.465	0.49	0.6	0.676	0.764	0.649	0.64	0.75	0.636	1.04	1.04	0.981	1.06	1.32
NCI-H23	0.499	0.693	0.56	0.553	0.546	0.552	0.409	0.384	0.385	0.449	0.321	0.294	0.288	0.288	0.305	0.863	0.725	0.701	0.609	0.57
NCI-H596	0.947	1.11	1.13	1.04	0.982	0.386	0.406	0.32	0.367	0.399	0.954	1.02	1.12	0.966	0.993	0.461	0.463	0.546	0.606	0.492
EPLC-272H	1.13	1	1.2	1.12	1.25	0.282	0.246	0.333	0.297	0.349	0.319	0.403	0.403	0.321	0.372	0.928	0.858	0.94	0.998	0.919
LCLC-103H	1.16	1.08	1.07	1.01	1.16	0.666	0.612	0.567	0.542	0.67	0.699	0.751	0.727	0.736	0.767	1.02	0.907	0.965	0.888	0.953
NCI-H2405	0.923	0.806	0.92	0.98	0.968	0.471	0.346	0.416	0.466	0.541	0.718	0.743	0.774	0.69	0.761	0.961	0.592	0.879	0.856	0.845
HCC-15	0.815	0.861	0.879	0.912	0.898	0.773	0.668	0.749	0.744	0.659	0.674	0.648	0.627	0.666	0.702	0.925	0.841	0.839	0.879	0.909
RERF-LC-KJ	0.896	0.885	0.911	0.854	0.822	0.43	0.518	0.55	0.488	0.603	0.659	0.684	0.754	0.7	0.608	0.778	0.697	0.732	0.879	0.852
NCI-H1944	1.12	1.09	1.16	1.11	1.19	0.309	0.293	0.326	0.325	0.382	0.4	0.44	0.423	0.483	0.429	0.797	0.778	0.858	0.794	0.848
